Laboratory results taken from PubChem BioAssay (NCI).
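Each compound was tested at five concentrations against cells in 96-well plates for 48 hours. Definition used: TGI = concentration required for complete inhibition of growth.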

Assays:
Assay in all cases: growth of human tumour cells (NCI), 48 h
786-0 renal = tested on: 786-0 renal
A498 renal = tested on: A498 renal
A549 NSCLC = tested on: A549 NSCLC
ACHN renal = tested on: ACHN renal
BT-549 breast = tested on: BT-549 breast
CAKI-1 renal = tested on: CAKI-1 renal
COLO 205 colon = tested on: COLO 205 colon
DU-145 prostate = tested on: DU-145 prostate
EKVX NSCLC = tested on: EKVX NSCLC
HCC-2998 colon = tested on: HCC-2998 colon
HCT-116 colon = tested on: HCT-116 colon
HCT-15 colon = tested on: HCT-15 colon
HL-60(TB) leukemia = tested on: HL-60(TB) leukemia
HOP-62 NSCLC = tested on: HOP-62 NSCLC
HOP-92 NSCLC = tested on: HOP-92 NSCLC
HS 578T breast = tested on: HS 578T breast
HT29 colon = tested on: HT29 colon
IGROV1 ovarian = tested on: IGROV1 ovarian
K-562 leukemia = tested on: K-562 leukemia
KM12 colon = tested on: KM12 colon
LOX IMVI melanoma = tested on: LOX IMVI melanoma
M14 melanoma = tested on: M14 melanoma
MALME-3M melanoma = tested on: MALME-3M melanoma
MCF7 breast = tested on: MCF7 breast
MDA-MB-231 breast = tested on: MDA-MB-231 breast
MDA-MB-435 = tested on: MDA-MB-435
MDA-N = tested on: MDA-N
MOLT-4 leukemia = tested on: MOLT-4 leukemia
NCI-H226 lung = tested on: NCI-H226 lung
NCI-H23 lung = tested on: NCI-H23 lung
NCI-H460 lung = tested on: NCI-H460 lung
NCI-H522 lung = tested on: NCI-H522 lung
NCI/ADR-RES ovarian = tested on: NCI/ADR-RES ovarian
OVCAR-3 ovarian = tested on: OVCAR-3 ovarian
OVCAR-4 ovarian = tested on: OVCAR-4 ovarian
OVCAR-5 ovarian = tested on: OVCAR-5 ovarian
OVCAR-8 ovarian = tested on: OVCAR-8 ovarian
PC-3 prostate = tested on: PC-3 prostate
RPMI-8226 leukemia = tested on: RPMI-8226 leukemia
RXF 393 renal = tested on: RXF 393 renal
SF-268 CNS = tested on: SF-268 CNS
SF-295 CNS = tested on: SF-295 CNS
SF-539 CNS = tested on: SF-539 CNS
SK-MEL-2 melanoma = tested on: SK-MEL-2 melanoma
SK-MEL-28 melanoma = tested on: SK-MEL-28 melanoma
SK-MEL-5 melanoma = tested on: SK-MEL-5 melanoma
SK-OV-3 ovarian = tested on: SK-OV-3 ovarian
SN12C renal = tested on: SN12C renal
SNB-19 CNS = tested on: SNB-19 CNS
SNB-75 CNS = tested on: SNB-75 CNS
SR leukemia = tested on: SR leukemia
SW-620 colon = tested on: SW-620 colon
T-47D breast = tested on: T-47D breast
TK-10 renal = tested on: TK-10 renal
U251 CNS = tested on: U251 CNS
UACC-257 melanoma = tested on: UACC-257 melanoma
UACC-62 melanoma = tested on: UACC-62 melanoma
UO-31 renal = tested on: UO-31 renal
CCRF-CEM leukemia = tested on: CCRF-CEM leukemia

Work on `COc1cc(/C=N/c2nc3cc4sc(/N=C/c5cc(OC)c(OC)c(OC)c5)nc4cc3s2)cc(OC)c1OC` yielded a TGI (786-0 renal) greater than 100 µM, a TGI (A498 renal) greater than 100 µM and a TGI (A549 NSCLC) greater than 100 µM. The TGI (ACHN renal) was greater than 100 µM, the TGI (BT-549 breast) was greater than 100 µM and the TGI (CAKI-1 renal) was greater than 100 µM. It also gave a TGI (COLO 205 colon) greater than 100 µM, a TGI (DU-145 prostate) greater than 100 µM and a TGI (EKVX NSCLC) greater than 100 µM. The TGI (HCC-2998 colon) was greater than 100 µM, the TGI (HCT-116 colon) was greater than 100 µM and the TGI (HCT-15 colon) was greater than 100 µM. It also gave a TGI (HL-60(TB) leukemia) greater than 100 µM, a TGI (HOP-62 NSCLC) greater than 100 µM and a TGI (HOP-92 NSCLC) greater than 100 µM. For the same compound, the TGI (HS 578T breast) was greater than 100 µM, the TGI (HT29 colon) was greater than 100 µM and the TGI (IGROV1 ovarian) was greater than 100 µM. For the same compound, the TGI (K-562 leukemia) was greater than 100 µM, the TGI (KM12 colon) was greater than 100 µM and the TGI (LOX IMVI melanoma) was greater than 100 µM. It also gave a TGI (M14 melanoma) greater than 100 µM, a TGI (MALME-3M melanoma) greater than 100 µM and a TGI (MCF7 breast) greater than 100 µM. It also gave a TGI (MDA-MB-231 breast) greater than 100 µM, a TGI (MDA-MB-435) greater than 100 µM and a TGI (MDA-N) of 81.7 µM. The TGI (MOLT-4 leukemia) was greater than 100 µM, the TGI (NCI-H226 lung) was greater than 100 µM and the TGI (NCI-H23 lung) was greater than 100 µM. It also gave a TGI (NCI-H460 lung) greater than 100 µM, a TGI (NCI-H522 lung) greater than 100 µM and a TGI (NCI/ADR-RES ovarian) greater than 100 µM. It also gave a TGI (OVCAR-3 ovarian) greater than 100 µM, a TGI (OVCAR-4 ovarian) greater than 100 µM and a TGI (OVCAR-5 ovarian) greater than 100 µM. The TGI (OVCAR-8 ovarian) was greater than 100 µM, the TGI (PC-3 prostate) was greater than 100 µM and the TGI (RPMI-8226 leukemia) was greater than 100 µM. For the same compound, the TGI (RXF 393 renal) was greater than 100 µM, the TGI (SF-268 CNS) was greater than 100 µM and the TGI (SF-295 CNS) was greater than 100 µM. It also gave a TGI (SF-539 CNS) of 40.8 µM, a TGI (SK-MEL-2 melanoma) greater than 100 µM and a TGI (SK-MEL-28 melanoma) of 39.1 µM. The TGI (SK-MEL-5 melanoma) was greater than 100 µM, the TGI (SK-OV-3 ovarian) was greater than 100 µM and the TGI (SN12C renal) was greater than 100 µM. It also gave a TGI (SNB-19 CNS) greater than 100 µM, a TGI (SNB-75 CNS) greater than 100 µM and a TGI (SR leukemia) greater than 100 µM. It also gave a TGI (SW-620 colon) greater than 100 µM, a TGI (T-47D breast) greater than 100 µM and a TGI (TK-10 renal) greater than 100 µM. The TGI (U251 CNS) was greater than 100 µM, the TGI (UACC-257 melanoma) was greater than 100 µM and the TGI (UACC-62 melanoma) was greater than 100 µM. The TGI (UO-31 renal) was greater than 100 µM.

For `O=C(NCCCNCCN1C(=O)c2cccc3cc([N+](=O)[O-])cc(c23)C1=O)c1cc(-c2ccccc2)nc2ccccc12`, the TGI (786-0 renal) was 9.04 µM, the TGI (A498 renal) was 8.87 µM and the TGI (A549 NSCLC) was 15.7 µM. The TGI (ACHN renal) was 14.5 µM, the TGI (BT-549 breast) was 20.2 µM and the TGI (CAKI-1 renal) was 18.9 µM. The TGI (CCRF-CEM leukemia) was 22.2 µM, the TGI (COLO 205 colon) was 4.26 µM and the TGI (DU-145 prostate) was 17.3 µM. The TGI (EKVX NSCLC) was 22.8 µM, the TGI (HCC-2998 colon) was 3.05 µM and the TGI (HCT-116 colon) was 16.8 µM. The TGI (HCT-15 colon) was 17.2 µM, the TGI (HL-60(TB) leukemia) was 5.76 µM and the TGI (HOP-62 NSCLC) was 20.5 µM. For the same compound, the TGI (HOP-92 NSCLC) was 15 µM, the TGI (HS 578T breast) was 12.5 µM and the TGI (HT29 colon) was 2.84 µM. For the same compound, the TGI (IGROV1 ovarian) was 15.2 µM, the TGI (K-562 leukemia) was 2.5 µM and the TGI (KM12 colon) was 18.6 µM. The TGI (LOX IMVI melanoma) was 2.93 µM, the TGI (M14 melanoma) was 3.3 µM and the TGI (MALME-3M melanoma) was 3.24 µM. The TGI (MCF7 breast) was 6.51 µM, the TGI (MDA-MB-231 breast) was 8.17 µM and the TGI (MDA-MB-435) was 2.91 µM. The TGI (MDA-N) was 2.89 µM, the TGI (MOLT-4 leukemia) was 6.01 µM and the TGI (NCI-H226 lung) was 24.2 µM. The TGI (NCI-H23 lung) was 7.55 µM, the TGI (NCI-H460 lung) was 12.6 µM and the TGI (NCI-H522 lung) was 9.95 µM. The TGI (NCI/ADR-RES ovarian) was 17.3 µM, the TGI (OVCAR-3 ovarian) was 18.9 µM and the TGI (OVCAR-4 ovarian) was 15.1 µM. For the same compound, the TGI (OVCAR-5 ovarian) was 18.6 µM, the TGI (OVCAR-8 ovarian) was 17 µM and the TGI (PC-3 prostate) was 16.7 µM. It also gave a TGI (RPMI-8226 leukemia) of 7.66 µM, a TGI (RXF 393 renal) of 3.34 µM and a TGI (SF-268 CNS) of 15.9 µM. It also gave a TGI (SF-295 CNS) of 14.8 µM, a TGI (SF-539 CNS) of 5.07 µM and a TGI (SK-MEL-2 melanoma) of 12.1 µM. The TGI (SK-MEL-28 melanoma) was 3.44 µM, the TGI (SK-MEL-5 melanoma) was 5.97 µM and the TGI (SK-OV-3 ovarian) was 21.6 µM. The TGI (SN12C renal) was 17.1 µM, the TGI (SNB-19 CNS) was 18.9 µM and the TGI (SNB-75 CNS) was 14.1 µM. The TGI (SR leukemia) was 2.1 µM, the TGI (SW-620 colon) was 5.37 µM and the TGI (T-47D breast) was 23.7 µM. For the same compound, the TGI (TK-10 renal) was 21.8 µM, the TGI (U251 CNS) was 9.12 µM and the TGI (UACC-257 melanoma) was 3.95 µM. The TGI (UACC-62 melanoma) was 17.4 µM and the TGI (UO-31 renal) was 7.46 µM.
